Test results published in paper PMC12095868, “The Fsr transporter of Sinorhizobium meliloti contributes to antimicrobial resistance and symbiosis with alfalfa” (Microbiology, 2025).

Target: T1, Fsr (Sinorhizobium meliloti, UniProt Q92RK8)
T1 construct: native full-length protein in S. meliloti 1021 cells, compared with fsr::loxSp null mutant; 398 residues; MFS membrane transporter
Experiment: fluorometric accumulation and efflux assay, wild-type versus fsr null mutant cells
Assay type: cell-based
Conditions: whole cells, 10 ug/ml EtBr, 0.4% glucose as energy source; CCCP 25 ug/ml as decoupler in parallel; proton-dependent efflux

T1 sequence (Q92RK8 entry or part of it): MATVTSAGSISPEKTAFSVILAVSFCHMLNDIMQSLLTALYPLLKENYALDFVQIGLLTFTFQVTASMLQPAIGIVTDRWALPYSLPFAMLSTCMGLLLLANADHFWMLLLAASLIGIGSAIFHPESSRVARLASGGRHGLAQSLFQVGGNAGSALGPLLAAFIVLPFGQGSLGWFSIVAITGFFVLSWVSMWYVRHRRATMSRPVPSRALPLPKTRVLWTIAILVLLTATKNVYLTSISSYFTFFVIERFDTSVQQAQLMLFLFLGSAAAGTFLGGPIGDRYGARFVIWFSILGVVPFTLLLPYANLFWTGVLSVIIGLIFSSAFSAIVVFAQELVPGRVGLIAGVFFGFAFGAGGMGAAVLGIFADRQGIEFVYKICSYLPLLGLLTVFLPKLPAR

CC[n+]1c(-c2ccccc2)c2cc(N)ccc2c2ccc(N)cc21 [EtBr, ethidium bromide]
fluorometric accumulation and efflux assay, wild-type versus fsr null mutant cel: The rate and extent of EtBr efflux were higher in the wild type
